In PMC6199744, “Development of Chemical Proteomics for the Folateome and Analysis of the Kinetoplastid Folateome” (ACS Infectious Diseases, 2018):

Experiments:
Assay type in all cases: binding
[1] = target: T1, HeLa cell extract proteins (Homo sapiens, UniProt P10155); conditions: protein TROVE2; HeLa
T1 construct: endogenous in cells; host or cells: HeLa cell extract

[2] = target: T2, HeLa cell extract proteins (Homo sapiens, UniProt P60953); conditions: protein CDC42; HeLa
T2 construct: endogenous in cells; host or cells: HeLa cell extract

[3] = target: T3, HeLa cell extract proteins (Homo sapiens, UniProt Q9NQC3); conditions: HeLa; protein RTN4
T3 construct: endogenous in cells; host or cells: HeLa cell extract
T3 sequence (Q9NQC3 1-1192): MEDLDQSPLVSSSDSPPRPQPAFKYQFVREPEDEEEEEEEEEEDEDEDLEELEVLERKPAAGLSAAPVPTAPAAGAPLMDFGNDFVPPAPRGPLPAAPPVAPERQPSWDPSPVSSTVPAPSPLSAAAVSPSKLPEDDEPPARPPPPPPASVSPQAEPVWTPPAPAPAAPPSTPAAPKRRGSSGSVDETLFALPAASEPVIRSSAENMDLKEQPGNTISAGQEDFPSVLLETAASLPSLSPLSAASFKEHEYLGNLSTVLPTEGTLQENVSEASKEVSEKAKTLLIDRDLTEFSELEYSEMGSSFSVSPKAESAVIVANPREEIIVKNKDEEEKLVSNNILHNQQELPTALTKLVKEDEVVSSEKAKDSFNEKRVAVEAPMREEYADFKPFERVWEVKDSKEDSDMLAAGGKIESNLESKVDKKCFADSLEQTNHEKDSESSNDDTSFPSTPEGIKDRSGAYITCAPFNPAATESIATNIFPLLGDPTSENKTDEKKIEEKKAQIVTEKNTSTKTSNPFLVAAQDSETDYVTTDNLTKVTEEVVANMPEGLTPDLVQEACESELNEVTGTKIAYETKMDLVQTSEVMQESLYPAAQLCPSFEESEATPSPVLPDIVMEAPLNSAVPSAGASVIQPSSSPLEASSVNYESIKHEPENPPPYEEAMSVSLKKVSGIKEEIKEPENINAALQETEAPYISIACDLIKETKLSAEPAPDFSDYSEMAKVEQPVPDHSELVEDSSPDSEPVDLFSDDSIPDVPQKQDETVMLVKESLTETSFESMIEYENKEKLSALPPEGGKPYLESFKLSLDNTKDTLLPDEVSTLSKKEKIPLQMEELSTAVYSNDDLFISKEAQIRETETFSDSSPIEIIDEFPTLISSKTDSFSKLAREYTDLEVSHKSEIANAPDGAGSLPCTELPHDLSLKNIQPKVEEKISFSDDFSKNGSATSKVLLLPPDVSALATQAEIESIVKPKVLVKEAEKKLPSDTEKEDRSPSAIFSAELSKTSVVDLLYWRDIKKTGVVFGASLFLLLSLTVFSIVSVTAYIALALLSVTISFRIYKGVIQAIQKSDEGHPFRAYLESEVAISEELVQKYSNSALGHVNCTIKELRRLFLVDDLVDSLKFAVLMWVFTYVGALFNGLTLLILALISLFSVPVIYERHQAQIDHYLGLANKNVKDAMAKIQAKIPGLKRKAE

[4] = target: T4, HeLa cell extract proteins (Homo sapiens, UniProt O95347); conditions: protein SMC2; HeLa
T4 construct: endogenous in cells; host or cells: HeLa cell extract

[5] = target: T5, HeLa cell extract proteins (Homo sapiens, UniProt P49257); conditions: protein LMAN1; HeLa
T5 construct: endogenous in cells; host or cells: HeLa cell extract
T5 sequence (P49257 31-510): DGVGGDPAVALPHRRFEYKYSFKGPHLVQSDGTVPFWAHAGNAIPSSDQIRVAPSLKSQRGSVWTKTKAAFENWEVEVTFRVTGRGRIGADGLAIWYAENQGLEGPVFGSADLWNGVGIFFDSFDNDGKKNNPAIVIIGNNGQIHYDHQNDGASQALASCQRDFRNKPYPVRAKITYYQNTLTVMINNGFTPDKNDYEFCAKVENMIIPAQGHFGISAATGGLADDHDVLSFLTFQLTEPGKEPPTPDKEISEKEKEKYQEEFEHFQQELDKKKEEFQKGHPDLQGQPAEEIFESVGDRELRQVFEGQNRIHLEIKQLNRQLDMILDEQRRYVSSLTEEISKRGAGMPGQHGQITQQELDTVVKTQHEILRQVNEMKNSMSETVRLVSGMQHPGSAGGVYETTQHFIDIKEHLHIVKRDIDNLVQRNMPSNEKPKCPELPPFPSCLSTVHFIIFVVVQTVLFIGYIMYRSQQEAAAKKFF

[6] = target: T6, HeLa cell extract proteins (Homo sapiens, UniProt P61081); conditions: protein UBE2M; HeLa
T6 construct: endogenous in cells; host or cells: HeLa cell extract
T6 sequence (P61081 1-183): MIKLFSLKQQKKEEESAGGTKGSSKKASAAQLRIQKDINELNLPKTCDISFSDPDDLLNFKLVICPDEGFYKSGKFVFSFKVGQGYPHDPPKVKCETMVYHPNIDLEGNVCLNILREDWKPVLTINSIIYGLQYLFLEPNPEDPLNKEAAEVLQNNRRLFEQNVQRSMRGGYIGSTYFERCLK

[7] = target: T7, HeLa cell extract proteins (Homo sapiens, UniProt Q14746); conditions: captured protein COG2; HeLa
T7 construct: endogenous in cells; host or cells: HeLa cell extract
T7 sequence (Q14746 1-738): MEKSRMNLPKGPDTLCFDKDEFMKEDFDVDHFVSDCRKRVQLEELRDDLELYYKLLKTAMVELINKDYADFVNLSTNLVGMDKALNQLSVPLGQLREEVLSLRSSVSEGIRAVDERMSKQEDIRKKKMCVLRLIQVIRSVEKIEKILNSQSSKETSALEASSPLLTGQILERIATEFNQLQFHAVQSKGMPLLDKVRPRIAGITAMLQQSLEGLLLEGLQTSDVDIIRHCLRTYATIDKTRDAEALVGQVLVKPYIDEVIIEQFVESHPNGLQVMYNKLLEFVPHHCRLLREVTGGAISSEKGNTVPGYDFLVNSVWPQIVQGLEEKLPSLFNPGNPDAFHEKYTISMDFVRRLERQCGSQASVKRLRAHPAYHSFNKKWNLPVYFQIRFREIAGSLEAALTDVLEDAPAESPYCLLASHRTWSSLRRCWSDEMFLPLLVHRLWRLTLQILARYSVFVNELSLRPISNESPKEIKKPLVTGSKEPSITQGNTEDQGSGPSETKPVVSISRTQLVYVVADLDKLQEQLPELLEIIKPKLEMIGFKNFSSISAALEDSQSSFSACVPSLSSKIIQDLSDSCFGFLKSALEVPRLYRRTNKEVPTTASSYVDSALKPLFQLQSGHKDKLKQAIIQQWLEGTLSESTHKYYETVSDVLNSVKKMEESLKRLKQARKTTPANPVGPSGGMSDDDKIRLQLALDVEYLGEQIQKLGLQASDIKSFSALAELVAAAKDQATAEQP

[8] = target: T8, HeLa cell extract proteins (Homo sapiens, UniProt P55884); conditions: protein EIF3B; HeLa
T8 construct: endogenous in cells; host or cells: HeLa cell extract
T8 sequence (P55884 whole entry): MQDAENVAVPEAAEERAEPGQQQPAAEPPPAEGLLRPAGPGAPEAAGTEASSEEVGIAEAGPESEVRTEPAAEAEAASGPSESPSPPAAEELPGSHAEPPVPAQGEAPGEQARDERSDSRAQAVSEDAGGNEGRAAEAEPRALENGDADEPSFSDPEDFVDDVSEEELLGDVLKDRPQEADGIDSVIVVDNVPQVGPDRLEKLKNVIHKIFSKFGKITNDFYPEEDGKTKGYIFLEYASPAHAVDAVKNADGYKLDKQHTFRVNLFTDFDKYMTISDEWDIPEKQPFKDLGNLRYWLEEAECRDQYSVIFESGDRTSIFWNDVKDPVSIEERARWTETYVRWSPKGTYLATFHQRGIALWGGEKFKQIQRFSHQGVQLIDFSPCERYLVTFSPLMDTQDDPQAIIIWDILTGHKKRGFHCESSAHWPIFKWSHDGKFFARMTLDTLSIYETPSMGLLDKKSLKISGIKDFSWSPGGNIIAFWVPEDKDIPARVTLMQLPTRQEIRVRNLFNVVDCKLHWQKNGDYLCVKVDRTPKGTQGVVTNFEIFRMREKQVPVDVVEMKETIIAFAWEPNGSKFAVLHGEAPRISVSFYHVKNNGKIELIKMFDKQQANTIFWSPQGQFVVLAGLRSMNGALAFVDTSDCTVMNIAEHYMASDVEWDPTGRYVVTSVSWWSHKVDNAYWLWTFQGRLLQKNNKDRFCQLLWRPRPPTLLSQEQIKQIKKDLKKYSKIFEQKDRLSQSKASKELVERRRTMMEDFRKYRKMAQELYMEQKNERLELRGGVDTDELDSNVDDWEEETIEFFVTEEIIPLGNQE

T2 sequence (P60953 whole entry): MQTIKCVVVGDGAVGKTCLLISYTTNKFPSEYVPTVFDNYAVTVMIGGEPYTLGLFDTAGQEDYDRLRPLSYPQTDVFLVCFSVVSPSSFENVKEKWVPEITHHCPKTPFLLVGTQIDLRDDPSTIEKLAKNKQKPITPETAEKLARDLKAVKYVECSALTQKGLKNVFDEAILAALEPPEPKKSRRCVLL
T4 sequence (O95347 whole entry): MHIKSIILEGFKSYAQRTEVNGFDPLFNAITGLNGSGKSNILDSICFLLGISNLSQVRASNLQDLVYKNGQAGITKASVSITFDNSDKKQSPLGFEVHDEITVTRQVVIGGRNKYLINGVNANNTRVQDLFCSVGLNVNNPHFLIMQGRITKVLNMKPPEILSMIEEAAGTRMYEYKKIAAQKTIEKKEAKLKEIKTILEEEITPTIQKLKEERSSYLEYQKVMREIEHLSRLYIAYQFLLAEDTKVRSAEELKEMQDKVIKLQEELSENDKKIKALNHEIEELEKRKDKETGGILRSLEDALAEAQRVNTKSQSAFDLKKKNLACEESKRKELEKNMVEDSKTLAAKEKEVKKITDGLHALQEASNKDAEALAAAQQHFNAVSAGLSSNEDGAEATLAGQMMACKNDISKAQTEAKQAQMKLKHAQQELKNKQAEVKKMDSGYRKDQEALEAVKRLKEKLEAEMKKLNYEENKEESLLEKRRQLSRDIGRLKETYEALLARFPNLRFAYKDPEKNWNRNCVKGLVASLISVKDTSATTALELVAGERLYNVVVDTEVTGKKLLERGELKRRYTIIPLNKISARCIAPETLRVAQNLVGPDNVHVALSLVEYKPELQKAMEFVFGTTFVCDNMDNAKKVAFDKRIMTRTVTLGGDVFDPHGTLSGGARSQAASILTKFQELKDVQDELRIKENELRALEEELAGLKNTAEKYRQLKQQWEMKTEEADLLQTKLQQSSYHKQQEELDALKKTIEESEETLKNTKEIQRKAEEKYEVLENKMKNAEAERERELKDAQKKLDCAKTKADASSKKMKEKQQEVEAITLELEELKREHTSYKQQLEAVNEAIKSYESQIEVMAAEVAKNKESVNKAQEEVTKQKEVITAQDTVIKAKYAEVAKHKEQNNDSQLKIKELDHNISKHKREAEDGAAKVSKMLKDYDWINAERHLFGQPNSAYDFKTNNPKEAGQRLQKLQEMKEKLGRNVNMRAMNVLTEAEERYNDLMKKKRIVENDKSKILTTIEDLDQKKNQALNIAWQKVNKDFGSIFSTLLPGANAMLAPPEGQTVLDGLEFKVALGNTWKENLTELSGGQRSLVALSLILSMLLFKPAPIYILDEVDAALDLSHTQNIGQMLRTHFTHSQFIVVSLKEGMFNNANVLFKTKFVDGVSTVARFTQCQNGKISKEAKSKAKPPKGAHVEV
T1 sequence (P10155 whole entry): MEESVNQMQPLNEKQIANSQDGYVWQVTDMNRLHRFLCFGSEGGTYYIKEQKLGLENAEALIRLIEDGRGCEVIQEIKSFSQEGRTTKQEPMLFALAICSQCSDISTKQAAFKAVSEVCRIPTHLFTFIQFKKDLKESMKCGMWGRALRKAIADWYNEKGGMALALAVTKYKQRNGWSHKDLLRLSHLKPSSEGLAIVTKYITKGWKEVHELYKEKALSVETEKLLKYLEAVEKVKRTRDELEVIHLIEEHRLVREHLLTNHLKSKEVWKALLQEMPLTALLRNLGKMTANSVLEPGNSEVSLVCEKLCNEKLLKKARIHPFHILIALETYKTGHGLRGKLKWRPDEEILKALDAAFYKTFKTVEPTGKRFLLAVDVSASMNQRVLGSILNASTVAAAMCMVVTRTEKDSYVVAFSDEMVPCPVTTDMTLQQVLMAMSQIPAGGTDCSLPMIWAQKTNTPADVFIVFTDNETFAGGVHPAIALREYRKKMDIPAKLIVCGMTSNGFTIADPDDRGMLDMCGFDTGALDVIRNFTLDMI

For `CCCCCCOc1ccc(Cc2cnc(N)nc2N)cc1` [compound 1], the “fold changes relative to vehicle control” value [1] was 1.05, the “fold changes relative to vehicle control” value [2] was 1.11 and the “fold changes relative to vehicle control” value [3] was 0.39. The “fold changes relative to vehicle control” value [4] was 1.4, the “fold changes relative to vehicle control” value [5] was 1.17 and the “fold changes relative to vehicle control” value [6] was 1.2. For the same compound, the “fold changes relative to vehicle control” value [7] was 0.88 and the “fold changes relative to vehicle control” value [8] was 0.99.

`CCCCCCOc1cccc(Cc2cnc(N)nc2N)c1` [compound 2] was tested, and the “fold changes relative to vehicle control” value [1] was 1.49, the “fold changes relative to vehicle control” value [2] was 1.45 and the “fold changes relative to vehicle control” value [3] was 1.21. For the same compound, the “fold changes relative to vehicle control” value [4] was 1.36, the “fold changes relative to vehicle control” value [5] was 1.57 and the “fold changes relative to vehicle control” value [6] was 1.71. For the same compound, the “fold changes relative to vehicle control” value [7] was 1 and the “fold changes relative to vehicle control” value [8] was 1.68.

With `Nc1nc2cccc(-c3ccccc3)c2n1Cc1ccc(Cl)c(Cl)c1` [compound 3] the “fold changes relative to vehicle control” value [1] was 1.27, the “fold changes relative to vehicle control” value [2] was 0.99 and the “fold changes relative to vehicle control” value [3] was 1. For the same compound, the “fold changes relative to vehicle control” value [4] was 1.11, the “fold changes relative to vehicle control” value [5] was 0.87 and the “fold changes relative to vehicle control” value [6] was 0.83. The “fold changes relative to vehicle control” value [7] was 0.82 and the “fold changes relative to vehicle control” value [8] was 1.2.
